Experimental data: ChEMBL document CHEMBL3885861, “Open TG-GATES”

Species: Rattus norvegicus
Assay: Open TG-GATES - Regimen: Single
Format: toxicity, organism-based, Sprague-Dawley
Parameters: regimen Single, gender Male, age 6 weeks
Conditions: in vivo, po, 0 mg/kg, route gavage, dose level Control; for APTT / Bas / Eos / Fbg / Hb / Ht / Lym / MCH / MCHC / MCV / Mono / Neu / PT / Plat / RBC / Ret / WBC: tissue Blood; for KIDNEY_L / KIDNEY_R / KIDNEY_TOTAL: tissue Kidney; for LIVER: tissue Liver; for A/G / ALP / ALT / AST / BUN / CRE / Ca / Cl / DBIL / GLC / IP / K / LDH / Na / PL / RALB / TBIL / TC / TG / TP / gamma-GTP: tissue Plasma

SMILES: Nc1ccc(Cc2ccc(N)cc2)cc1
- TERMINAL_BW (3 h): 209.4 g
- APTT (3 h): 13.9 s
- Bas (3 h): 0%
- Eos (3 h): 0.6%
- Fbg (3 h): 263.2 mg/dL
- Hb (3 h): 12.7 g/dL
- Ht (3 h): 37.3%
- Lym (3 h): 73.6%
- MCH (3 h): 21.8 pg
- MCHC (3 h): 34.1%
- MCV (3 h): 63.9 fL
- Mono (3 h): 3%
- Neu (3 h): 21.2%
- PT (3 h): 11.7 s
- Plat (3 h): 145.5 x10_4/uL
- RBC (3 h): 584.2 x10_4/ul
- Ret (3 h): 9.5%
- WBC (3 h): 100 x10_2/uL
- KIDNEY_L (3 h): 0.9 g
- KIDNEY_R (3 h): 0.9 g
- KIDNEY_TOTAL (3 h): 1.8 g
- LIVER (3 h): 9.5 g
- A/G (3 h): 0.8
- ALP (3 h): 1787.8 IU/L
- ALT (3 h): 46.8 IU/L
- AST (3 h): 90.8 IU/L
- BUN (3 h): 9.8 mg/dL
- CRE (3 h): 0.2 mg/dL
- Ca (3 h): 11 mg/dL
- Cl (3 h): 106.8 meq/L
- DBIL (3 h): 0.024 mg/dL
- GLC (3 h): 158.2 mg/dL
- IP (3 h): 9.1 mg/dL
- K (3 h): 3.7 meq/L
- LDH (3 h): 72.6 IU/L
- Na (3 h): 141.2 meq/L
- PL (3 h): 149.8 mg/dL
- RALB (3 h): 2.5 g/dL
- TBIL (3 h): 0.056 mg/dL
- TC (3 h): 76.8 mg/dL
- TG (3 h): 128.2 mg/dL
- TP (3 h): 5.6 g/dL
- gamma-GTP (3 h): 1 IU/L
- TERMINAL_BW (6 h): 206.4 g
- APTT (6 h): 14.9 s
- Bas (6 h): 0%
- Eos (6 h): 1%
- Fbg (6 h): 279.2 mg/dL
- Hb (6 h): 13 g/dL
- Ht (6 h): 38%
- Lym (6 h): 74.2%
- MCH (6 h): 21.4 pg
- MCHC (6 h): 34.1%
- MCV (6 h): 62.8 fL
- Mono (6 h): 2.6%
- Neu (6 h): 21.6%
- PT (6 h): 11.6 s
- Plat (6 h): 134.9 x10_4/uL
- RBC (6 h): 606 x10_4/ul
- Ret (6 h): 8%
- WBC (6 h): 104.9 x10_2/uL
- KIDNEY_L (6 h): 0.9 g
- KIDNEY_R (6 h): 0.9 g
- KIDNEY_TOTAL (6 h): 1.8 g
- LIVER (6 h): 8.5 g
- A/G (6 h): 0.8
- ALP (6 h): 1552.8 IU/L
- ALT (6 h): 35.2 IU/L
- AST (6 h): 75 IU/L
- BUN (6 h): 9 mg/dL
- CRE (6 h): 0.2 mg/dL
- Ca (6 h): 10.8 mg/dL
- Cl (6 h): 107.4 meq/L
- DBIL (6 h): 0.024 mg/dL
- GLC (6 h): 165 mg/dL
- IP (6 h): 10 mg/dL
- K (6 h): 4.2 meq/L
- LDH (6 h): 67 IU/L
- Na (6 h): 141.8 meq/L
- PL (6 h): 131.6 mg/dL
- RALB (6 h): 2.5 g/dL
- TBIL (6 h): 0.062 mg/dL
- TC (6 h): 71.2 mg/dL
- TG (6 h): 59.4 mg/dL
- TP (6 h): 5.7 g/dL
- gamma-GTP (6 h): 1.4 IU/L
- TERMINAL_BW (9 h): 204.2 g
- APTT (9 h): 14.5 s
- Bas (9 h): 0%
- Eos (9 h): 0.8%
- Fbg (9 h): 277 mg/dL
- Hb (9 h): 12.7 g/dL
- Ht (9 h): 37.3%
- Lym (9 h): 73.4%
- MCH (9 h): 21.1 pg
- MCHC (9 h): 34.2%
- MCV (9 h): 61.8 fL
- Mono (9 h): 1.8%
- Neu (9 h): 23.6%
- PT (9 h): 11.7 s
- Plat (9 h): 137.5 x10_4/uL
- RBC (9 h): 603.8 x10_4/ul
- Ret (9 h): 8%
- WBC (9 h): 65.4 x10_2/uL
- KIDNEY_L (9 h): 0.9 g
- KIDNEY_R (9 h): 0.9 g
- KIDNEY_TOTAL (9 h): 1.7 g
- LIVER (9 h): 7.8 g
- A/G (9 h): 0.8
- ALP (9 h): 1332.6 IU/L
- ALT (9 h): 27.4 IU/L
- AST (9 h): 64.4 IU/L
- BUN (9 h): 8.8 mg/dL
- CRE (9 h): 0.2 mg/dL
- Ca (9 h): 10.5 mg/dL
- Cl (9 h): 106.4 meq/L
- DBIL (9 h): 0.018 mg/dL
- GLC (9 h): 174.2 mg/dL
- IP (9 h): 10.5 mg/dL
- K (9 h): 4 meq/L
- LDH (9 h): 58.2 IU/L
- Na (9 h): 143 meq/L
- PL (9 h): 129.6 mg/dL
- RALB (9 h): 2.5 g/dL
- TBIL (9 h): 0.064 mg/dL
- TC (9 h): 77.8 mg/dL
- TG (9 h): 42.4 mg/dL
- TP (9 h): 5.6 g/dL
- gamma-GTP (9 h): 1 IU/L
- TERMINAL_BW (24 h): 219.7 g
- APTT (24 h): 12.6 s
- Bas (24 h): 0%
- Eos (24 h): 1%
- Fbg (24 h): 258.8 mg/dL
- Hb (24 h): 13.1 g/dL
- Ht (24 h): 37.9%
- Lym (24 h): 73.2%
- MCH (24 h): 21.2 pg
- MCHC (24 h): 34.5%
- MCV (24 h): 61.6 fL
- Mono (24 h): 1.8%
- Neu (24 h): 23.2%
- PT (24 h): 11.4 s
- Plat (24 h): 146.9 x10_4/uL
- RBC (24 h): 616.8 x10_4/ul
- Ret (24 h): 6.8%
- WBC (24 h): 88.9 x10_2/uL
- KIDNEY_L (24 h): 0.9 g
- KIDNEY_R (24 h): 0.9 g
- KIDNEY_TOTAL (24 h): 1.9 g
- LIVER (24 h): 9.5 g
- A/G (24 h): 0.9
- ALP (24 h): 1942.2 IU/L
- ALT (24 h): 38.6 IU/L
- AST (24 h): 74 IU/L
- BUN (24 h): 14.6 mg/dL
- CRE (24 h): 0.2 mg/dL
- Ca (24 h): 10.9 mg/dL
- Cl (24 h): 106.4 meq/L
- DBIL (24 h): 0.02 mg/dL
- GLC (24 h): 167 mg/dL
- IP (24 h): 7.7 mg/dL
- K (24 h): 3.9 meq/L
- LDH (24 h): 49.2 IU/L
- Na (24 h): 143.2 meq/L
- PL (24 h): 135.4 mg/dL
- RALB (24 h): 2.6 g/dL
- TBIL (24 h): 0.044 mg/dL
- TC (24 h): 72 mg/dL
- TG (24 h): 89.6 mg/dL
- TP (24 h): 5.5 g/dL
- gamma-GTP (24 h): 1 IU/L
